Measurements: article PMC9823356, “Inhibition of Cancer Cell Proliferation and Bacterial Growth by Silver(I) Complexes Bearing a CH3-Substituted Thiadiazole-Based Thioamide” (Molecules, 2023)
Read-outs that look alike come from different tables or passages of the source.

Columns and labels:
[1] = tested on: Bacillus cereus (B. cereus); test: In vitro antibacterial activity, progressive double dilutions, culture turbidity; assay type: cell-based
Description: (§1) The growth of bacteria was estimated by measuring the turbidity of the culture, as previously reported. […] The pH of the media was adjusted to 7.0.

[2] = tested on: Bacillus subtilis (B. subtilis); test: as above; assay type: cell-based
Description: as §1

[3] = tested on: Escherichia coli (E. coli); test: as above; assay type: cell-based
Description: as §1

[4] = tested on: Staphylococcus aureus (S. aureus); test: as above; assay type: cell-based
Description: as §1

[5] = tested on: MRC5 human normal lung cells; test: MTT cytostatic/cytotoxic assay; assay type: cell-based; conditions: MRC5, 48 h treatment
Method: The cell lines were obtained from the American Type of Culture collection (ATCC), except HuP-T3 which was kindly donated from University of Crete, School of Medicine, Greece, and were grown in different culture medium according to the instructions.
For the determination of the cell viability, it was employed the MTT assay. Cells were plated in 96-well plate at a density of 1 × 10^4 cells/mL per well and maintained for 72 h at 37 °C in a 5% CO2 incubator and grown as monolayers. […] The viability of cultured cells was estimated by a (3-(4,5-imethylthiazol-2-yl)-2,5-diphenyltetrazolium bromide (MTT) metabolic assay as previously described.
In brief, MTT (Sigma, St Louis, Missouri, USA) was dissolved in PBS in a concentration of 5 mg/mL, filter sterilized, and stored at 4 °C. Then, 50 μL of stock solution was added to each culture and incubated for 3 h at 37 °C. Formazan crystals were solubilized by DMSO (100 μL). Absorbance of the converted dye was measured at a wavelength of 540 nm on ELISA reader (VersaMax Microplate Reader Orleans, USA). […] Using seven absorbance measurements [time 24 h (Ct24), control growth 72 h (Ct72), and test growth in the presence of drug at five concentration levels (Tt72x)], the percentage of growth was calculated at each level of the drug concentrations. The percentage growth inhibition was calculated according to National Cancer Institute (NCI) as: {[(Tt72x) − (Ct24)]/[(Ct72) − (Ct24)]} × 100 for concentrations for which Tt72x>Ct24 and {(Tt72x) − (Ct24)]/(Ct24)} × 100 for concentrations for which Tt72x<Ct24. […] All experiments were carried out in triplicate. A significant difference was presumed to exist when p ≤ 0.05 (two tailed paired t test).

[6] = Reduction of hydrogen peroxide; conditions: compound 0.1 mM, 20 min, phosphate buffer pH 7.4
Method: In vitro antioxidant activity studies for 1–4 and their free ligands were performed in order to determine their ability to scavenge DPPH, and ABTS free radicals and to reduce H2O2 and was compared with the antioxidant capacity of reference compounds (NDGA, BHT, trolox and ascorbic acid).
The absorbance was measured at 230 nm after 20 min. The antioxidant activity of the compounds was expressed as percent reduction of H2O2 (%H2O2). Ascorbic acid (or vitamin C) was used as an appropriate standard.

[7] = tested on: calf-thymus (CT) DNA; test: DNA viscosity measurements; assay type: binding
Method: All measurements were performed at room temperature. The obtained data are presented as (η/η0)^1/3 versus r where η is the viscosity of DNA in the presence of the studied compound, η0 is the viscosity of DNA alone in buffer solution and r = [complex]/[DNA]. DNA-length (L/L0), according to the equation L/L0 = (η/η0)^1/3. […] In the particular case of intercalation, an increase in the separation distance of the DNA-base pairs can be induced in order to host the inserting compound resulting in an increase of the relative DNA-viscosity. On the other hand, when a compound binds to DNA-grooves via non-classic intercalation (i.e., electrostatic interaction or external groove-binding) the DNA-viscosity may show a slight decrease or remain unchanged, because of a bend of DNA double helix which leads to shortening of DNA length.

[8] = value in parentheses, mean ± SD, read-out: IC50

[Ag(mtdztH)(dppe)(NO3)]n [Compound 4] gave an IC50 [1] of 5 µg/mL, an MIC [1] of 50 µg/mL and an MIC ([1]; value in parentheses) of 45 μΜ. The IC50 [1, 8] was 4.6 ± 0.7 µM, the IC50 [2] was 4.9 µg/mL and the MIC [2] was 30 µg/mL. It also gave an MIC ([2]; value in parentheses) of 27 μΜ, an IC50 [2, 8] of 4.5 ± 0.8 µM and an IC50 [3] of 11 µg/mL. The MIC ([3]; ampicillin reference against E.coli (BL21)) was “higher than 100 μg/mL”, the MIC ([3]; value in parentheses) was 91 μΜ and the IC50 [3, 8] was 15.4 ± 2.4 µM. The IC50 [4] was 8 µg/mL, the MIC [4] was 50 µg/mL and the MIC ([4]; value in parentheses) was 45 μΜ. The IC50 [4, 8] was 7.3 ± 1.6 µM, the IC50 ([5]; cytocidal/cytotoxic) was 4.4 ± 0.08 µM and the GI50 ([5]; growth inhibition) was 1.2 ± 0.05 µM. For the same substance, the TGI ([5]; total growth inhibition) was 2.8±0.05 μΜ, the “H2O2 reducing ability (%H2O2)” value [6] was 35.17±1.96% and the “relative DNA viscosity change” value ([7]; higher concentrations, r > 0.15) was “moderate increase”. For the same substance, the “relative DNA viscosity change” value ([7]; low concentrations, up to r = 0.15) was “remained almost unchanged”.
